{"source": "patent US20100197740A1", "about": "“Method of Screening Compounds Having Anti-Amyloid Properties” (LES LABORATOIRES SERVIER, priority 2006, published 2010)", "key": {"Aβ42-α7 nAChR complexes [1]": {"target": "T1, Aβ42-α7 nAChR complexes (Homo sapiens, UniProt P36544)", "T1 construct": "dissociation of the complexes already present in the diseased human tissues; tissue Harvard Brain Tissue Resource Center and Analytical Biological Services; host or cells: post-mortem frontal cortex synaptosomes of Alzheimer's disease patients", "T1 sequence (P36544 23-502, one chain of several)": "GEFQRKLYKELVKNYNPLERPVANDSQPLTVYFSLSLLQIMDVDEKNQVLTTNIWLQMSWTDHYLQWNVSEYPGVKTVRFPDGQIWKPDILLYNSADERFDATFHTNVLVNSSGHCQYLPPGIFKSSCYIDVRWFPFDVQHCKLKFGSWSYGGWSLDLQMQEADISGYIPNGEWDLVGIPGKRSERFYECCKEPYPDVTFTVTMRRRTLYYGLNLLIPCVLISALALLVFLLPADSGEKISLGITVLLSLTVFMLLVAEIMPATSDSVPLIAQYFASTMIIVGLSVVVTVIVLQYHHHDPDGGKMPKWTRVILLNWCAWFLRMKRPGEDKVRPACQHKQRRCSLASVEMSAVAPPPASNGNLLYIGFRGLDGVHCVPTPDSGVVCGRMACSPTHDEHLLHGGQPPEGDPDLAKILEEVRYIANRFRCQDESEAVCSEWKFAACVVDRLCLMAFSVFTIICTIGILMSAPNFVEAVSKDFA", "assay": "Inhibition of formation of Aβ42-α7 nAChR complexes in post-mortem frontal cortex synaptosomes (immunoprecipitation, Western blot)", "type": "binding", "conditions": "S 24795 30 μM added before Aβ peptides (Aβ42 100 nM); non-diseased control human cortex synaptosomes", "protocol": "FIG. 1: Western blot illustrating the inhibition, by S 24795, of Aβ42-α7 nAChR complexes obtained post-mortem from frontal cortex synaptosomes of Alzheimer's disease patients or control subjects. The Aβ42-α7 nAChR complexes are incubated in the medium (Krebs-Ringer) on its own or in the presence of S 24795 (30 μM) for 10 minutes, followed by incubation in the presence of Aβ42 peptide for 30 minutes.\nFIG. 2: Quantification of the inhibition of the formation of Aβ42-α7 nAChR complexes in human frontal cortex synaptosomes obtained post-mortem from Alzheimer's disease patients and control subjects and incubated with S 24795 (30 μM)—or not—and then with Aβ42 peptides (100 nM). *: p<0.01 for controls and Alzheimer's disease patients, Newman-Keuls test for multiple comparisons.\n(§1) 100 mg of post-mortem frontal cortex ground on ice are homogenised in 10 volumes of 10 mM HEPES pH 7.4 maintained on ice and oxygenated in the presence of […] sucrose and 0.1 mM EDTA and then mixed in a Teflon/glass tissue grinder at 4° C. in a homogenisation solution containing 25 mM HEPES pH 7.5, 1 mM EDTA, 50 μg/ml of leupeptin, 10 μg/ml of aprotinin, 2 μg/ml of soy trypsin inhibitor, 0.04 mM PMSF, a mixture of phosphatase inhibitor proteins, and 0.2% […].\nThe homogenate is centrifuged, firstly, at 1000 g and 4° C. for 10 minutes. […]"}, "Aβ42-α7 nAChR complexes [2]": {"target": "T1, Aβ42-α7 nAChR complexes", "assay": "Dissociation of Aβ42-α7 nAChR complexes already present in frontal cortex synaptosomes of Alzheimer's disease patients (immunoprecipitation, Western blot)", "type": "binding", "protocol": "FIG. 3: Western blot illustrating the dissociation, caused by S 24795, of Aβ42-α7 nAChR complexes obtained post-mortem from frontal cortex synaptosomes of Alzheimer's disease patients or control subjects. The Aβ42-α7 nAChR complexes are incubated in the medium (Krebs-Ringer) on its own or in the presence of S 24795 (1, 10, 30 or 100 μM) for 10 minutes and then in the presence or absence of Aβ42 (100 nM).\nFIG. 4: Quantification of the dissociation of the interaction of α7 nAChR receptors associated with Aβ42 in human frontal cortex synaptosomes obtained post-mortem from Alzheimer's disease patients and control subjects and incubated with S 24795 (from 1 to 100 μM) and then in the presence or absence of Aβ42 (100 nM). *: p<0.01 for controls and Alzheimer's disease patients, Newman-Keuls test for multiple comparisons.\nas §1\nThe homogenate is centrifuged, firstly, at 1000 g and 4° C. for 10 minutes. The supernatant obtained in that first centrifugation is centrifuged for a second time at 15000 g for 30 minutes to obtain a sediment of synaptosomes.\nThe sediment of synaptosomes is washed twice by suspension in 10 ml of Krebs-Ringer solution, maintained on ice, comprising 25 mM HEPES pH 7.4, 118 mM NaCl, 4.8 mM KCl, 25 mM NaHCO3, 1.3 mM CaCl2, 1.2 mM MgSO4, 1.2 mM KH2PO4, 10 mM glucose, 100 μM ascorbic acid, 50 μg/ml of leupeptin, 10 μg/ml of aprotinin, 2 μg/ml of soy trypsin inhibitor, 0.04 mM PMSF and a mixture of phosphatase inhibitor proteins, aerated for 10 minutes using 95% O2/5% CO2 and then centrifuged again at 15000 g for 10 minutes at 4° C. The washed synaptosomes are then suspended in 1 ml of oxygenated Krebs-Ringer solution and the protein concentration of said synaptosome suspension is determined by the Bradford method.\nThe human cortex synaptosomes are incubated in an oxygenated Krebs-Ringer solution in the presence of the compound S 24795 at 37° C. for 30 minutes in a total incubation volume of 500 μl. The compound S 24795 is present in the reaction mixture at a concentration of 1 μM, 10 μM, 30 μM or 100 μM. Depending on the experiments being carried out, the synaptosomes are also incubated in the presence of 100 nM Aβ42 or in the presence of the vehicle. […]"}, "α7 nAChR and NMDAR": {"system": "α7 nAChR and NMDAR", "assay": "Functional recovery: 45Ca2+ entry into frontal cortex synaptosomes via α7 and NMDA receptors", "type": "biochemical, human", "protocol": "FIG. 5: Quantification of the entry of ^45Ca^2+ into human frontal cortex synaptosomes obtained post-mortem from Alzheimer's disease patients and from control subjects and treated with S 24795. The control brain slices are incubated in the presence of Aβ42 (1 μM)—or not—prior to the treatment with S 24795 (10 μM). Calcium entry is brought about either by α7 agonist (PNU282987) or by NMDA added to glycine.\nThe functional recovery experiments are carried out using brains according to I.2 obtained from patients according to I.1.\nThe functional recovery brought about by the treatment with S 24795 (10 μM) is evaluated with reference to the calcium influx via α7 and NMDA receptors. It was tested after 1 hour of treatment with S 24795 on control brains exposed to Aβ42 (30 minutes) and on brains of Alzheimer's disease patients. The treatments using Aβ42 (1 μM) and S 24795 (10 μM) are carried out on slices of cortex obtained from those brains. Synaptosomes are then prepared as described in I.4. In order to evaluate the Ca^2+ influxes via the α7 and NMDA receptors, the synaptosomes are incubated in the presence of ^45Ca^2+ (5 μM) for 5 minutes at 37° C. in Krebs-Ringer medium. The Ca^2+ fluxes are brought about for α7 selective α7nAChR receptor agonist, PNU282987 (0.1, 1 and 10 μM), and for the NMDAR receptors by the addition of NMDA (0.1, 1, 10 μM) and glycine (1 μM). The reaction is stopped by the addition of Krebs-Ringer (4° C.) containing EGTA but not containing calcium. After two washings, the synaptosomes are lysed by sonication in ethanol (95%) and the radioactivity is counted by liquid scintillation spectrometry. The specificity of the calcium influxes is checked by means of the addition of selective inhibitors of the α7 receptor (α-bungarotoxin) and of the NMDA receptor (AP-5)."}}, "data": [{"substance": "1-(4-bromophenyl)-2-(1-methyl-2-pyridiniumyl)-1-ethanone chloride or iodide [S 24795]", "values": [{"measurement": "reduction of the amount of Aβ42-α7 nAChR complexes formed", "setting": "Aβ42-α7 nAChR complexes [1]", "value": 92, "unit": "%"}, {"measurement": "reduction in the Aβ42-α7 nAChR complexes previously present in the diseased brain extracts", "setting": "Aβ42-α7 nAChR complexes [2]; S 24795 1 μM, absence of exogenous Aβ peptides, Alzheimer's disease synaptosomes", "value": "about 22%"}, {"measurement": "reduction in the Aβ42-α7 nAChR complexes previously present in the diseased brain extracts", "setting": "Aβ42-α7 nAChR complexes [2]; S 24795 10, 30 and 100 μM, absence of exogenous Aβ peptides, dose-dependent", "value": "substantial"}, {"measurement": "reduction of non-dissociated Aβ42-α7 nAChR complexes", "setting": "Aβ42-α7 nAChR complexes [2]; S 24795 at the highest concentration (100 μM), absence of exogenous Aβ peptides, Alzheimer's disease synaptosomes, p<0.01", "value": "~63", "unit": "%"}, {"measurement": "reduction in the amount of Aβ42-α7 nAChR complexes present in the diseased brains", "setting": "Aβ42-α7 nAChR complexes [2]; synaptosomes from cortices of Alzheimer's disease patients, S 24795 30 μM, Aβ peptides added (FIG. 1)", "value": "substantial reduction"}, {"measurement": "Ca2+ entry level as % of the control values without Aβ", "setting": "α7 nAChR and NMDAR; after S 24795 10 μM, brains of Alzheimer's disease patients and of controls pretreated with Aβ (comparable levels)", "value": "about 65%"}, {"measurement": "increase in Ca2+ entry compared to the brains of untreated Alzheimer's disease patients", "setting": "α7 nAChR and NMDAR; brains of Alzheimer's disease patients, S 24795 10 μM for 1 hour", "value": "~75", "unit": "%"}, {"measurement": "re-establishment of Ca2+ entry", "setting": "α7 nAChR and NMDAR; control brain slices exposed to Aβ42 (1 μM), then S 24795 10 μM for 1 hour", "value": "substantial re-establishment"}]}]}
